Measurements from patent publication US10526290B2, “Bendamustine derivatives and related compounds, and medical use thereof in cancer therapy” (SYNBIAS PHARMA AG, priority 2012, dated 2020).

- melting point: 174 to 176.5 °C
SMILES: Cl.Cn1c(CCCC(=O)O)nc2ccc(N(CCCl)CCCl)cc21
